Test results from US11203773B2, “Designer ribosomes and methods of use thereof for incorporating non-standard amino acids into polypeptides” (Yale University, priority 2016, dated 2021).
Read-outs that look alike come from different tables or passages of the source.

Columns and labels:
E. coli GlyRS [1] = biological target: T1, E. coli GlyRS (Escherichia coli, UniProt P00960); settings: aminoacylation; for kcat: 2 μM tRNA
E. coli GlyRS [2] = biological target: T1, E. coli GlyRS; settings: adenylation; for kcat (min^−1) or RSA (^32P-ATP formed min^−1 enzyme μM^−1): 25° C., pH 7.0
Protocol: Adenylation of α- and β-Amino Acids Catalyzed by E. coli PheRS, GlyRS, MetRS, and GluRS. […] Briefly, assay mixtures (50 μL) assembled at 25° C. contained the requisite α- or β^3-amino acid substrate (between 5 μM and 5 mM) in 100 mM HEPES (pH 7.0) containing 100 mM KCl, 15 mM MgCl2, 2 mM ATP, 0.5 mM NaPPi, and 50 μCi [^32P]-NaPPi). Reactions were initiated upon addition of enzyme (10 nM MetRS, 10 nM PheRS, or 50 nM GlyRS; 100 nM GluRS for reactions with α-Glu or 1.13 μM GluRS for reactions with β^3-Glu), incubated for various times (10 sec to 10 min), and halted by adding a 5 μL reaction aliquot to 100 μL quenching solution (10% charcoal, 0.5% HCl). 50 μL of 200 mM NaPPi in 1.5 N HCl was then added to each quenched reaction to decrease nonspecific binding of pyrophosphate to the charcoal. Each quenched reaction was then filtered through Whatman filter paper (number 3), previously washed with washing solution (200 mM NaPPi in 1 N HCl) using a 96-well BIO-DOT® apparatus (BioRad). Each well of the apparatus was then washed four times with 200 μL aliquots of washing solution (by pipetting washing solution up and down at least 10 times per wash) to minimize nonspecific binding of pyrophosphate to charcoal. Each experimental well was paired with an analogous control well (no-enzyme control) that lacked enzyme; a single membrane contained time points for both α- and β^3-amino acid substrates and all no-enzyme controls. The membrane was allowed to dry and was protected with a sheet of Microseal B adhesive seals (Biorad) prior to exposure to a BAS Storage Phosphor screen. Screens were imaged on a Typhoon 9500FLA biomolecule imager and the signal intensity of each dot was quantified using ImageJ to determine the relative amount of [^32P]-ATP formed as a function of time (Ctime). Each raw value were corrected by subtracting the intensity of the dot corresponding to the appropriate no-enzyme control (Cblank) and the resulting corrected values of Ccorr (representing the relative amounts of ^32P-ATP formed) were plotted as a function of time to determine values of relative ^32P-ATP formed per minute. Those values were divided by the concentration of enzyme used, and the data was plotted as relative specific activity (^32P-ATP formed min^−1×μM^−1 enzyme) and fitted using Prism by performing nonlinear regression using the least squares method and Equation 1 to obtain RSA (relative specific activity) and KM values (Equation 1 and Table 2).
In Equation 1, v is the apparent relative specific activity (relative ^32P-ATP formed per minute) obtained at each substrate concentration divided by the enzyme concentration, RSA is the relative specific activity, S is the concentration of substrate, and KM is the Michaelis-Menten constant.

E. coli GlyRS [3] = biological target: T1, E. coli GlyRS; settings: for krev (apparent rate of deacylation): deacylation of aminoacyl-tRNA, GlyRS 2 μM, 25° C.
Protocol: Deacylation assays. Large scale (200 μL) aminoacylation reactions were initiated using the conditions described above (iv). The reactions were allowed to proceed for 1 h at 37° C., after which each reaction mixture was phenol/chloroform extracted. In each case, the aminoacylated tRNA product was ethanol precipitated, and the buffer was exchanged using a micro Bio-Spin 6 column (BioRad) following the procedure specified by the manufacturer and 100 mM HEPES (pH 8.0) containing 100 mM KCl. The precise extent of aminoacylation was calculated using the procedure described above; the 2 μM concentration corresponds to total aminoacylated tRNA. Assays were performed at 25° C. in a 50 μL reaction with 2 μM [^32P]-aminoacyl-tRNA in 100 mM HEPES (pH 7.0) containing 100 mM KCl and 15 mM MgCl2.

[4] = test system: E. coli strains (BL21 (DE3)) with pUC18 rrnb plasmids; assay: Screen of library for sensitivity to erythromycin (growth inhibition, OD600); assay type: cell-based; settings: 6.8 μM erythromycin, E. coli with pUC18 plasmid encoding WT rrnb, 16-18 h
Protocol: (§3) To screen the resulting E. coli strains for antibiotic resistance, 2 μL of the 15% glycerol stocks prepared above were added to 98 μL of growth assay buffer (LB media (pH 8.35), 100 μg/mL carbenicillin, 1.0 mM IPTG, 6.8 μM erythromycin) in 384-well plates (Corning #3707). […] After 16-18 h, the extent of cell growth inhibition in the presence of antibiotic was determined by measuring the OD600 of each well using a SpectraMax M5 plate reader (Molecular Devices). The antibiotic-dependent inhibition of cell growth in each well was determined using Equation 4: [100−(OD600+A/OD600−A)×100] Equation 4 In this equation, OD600+A represents OD600 of wells containing antibiotic and OD600−A represents OD600 of wells lacking antibiotic.

[5] = test system: E. coli strains (BL21 (DE3)) with pUC18 rrnb plasmids; assay: Screen of erythromycin-resistant library for sensitivity to β3-puromycin (growth inhibition, OD600); assay type: cell-based; settings: 250 μM β^3-puromycin, E. coli with pUC18 plasmid encoding WT rrnb
Protocol: as §3
The 1986 erythromycin-resistant clones identified above were then screened for sensitivity to β^3-puromycin sensitivity as described above, except that 250 μM β^3-puromycin was substituted for erythromycin.

[6] = test system: BL21(DE3) cells expressing only WT ribosomes; assay: Expression of DHFR in 19/20 minimal media supplemented with amino acid (SDS-PAGE); assay type: cell-based, E. coli; settings: 19/20 minimal media supplemented with 1 mM of the amino acid
From the text: (§1) To evaluate the extent of in vivo β^3-amino acid incorporation, BL21 (DE3) cells were co-transformed via electroporation (vide infra) with two plasmids. […] The other plasmid encoded either the WT rrnb sequence (pLK35-rrnb), the 040329 mutant reported by Hecht (pLK35-040329.rrnb), or the P7A7 mutant (pLK35-P7A7.rrnb) identified during the puromycin sensitivity screen described above.
(§2) ii. β^3-amino acid incorporation. The subsequent protocol for in vivo β^3-amino acid incorporation employed minimal media and was adapted from procedures reported by Tirrell and Cropp (Liu, et al., Bioorg Med Chem Lett, 20:5613 (2010); Mandavi, et al., J Am Chem Soc, 135:2979 (2013)). Briefly, all 5 mL of the co-transformed cells prepared as described above were diluted into 100 mL of LB containing 50 ng/mL of kanamycin and […] of carbenicillin and grown to OD600=1.0, spun down, and then resuspended in 1/10th the original volume of 19/20 minimal media (10.5 g/L M9 salts, 0.1 mM CaCl2, 1 mM MgSO4, 1% glycerol, 100 μM of each amino acid (minus α-Phe), 25 mg/L thiamine, […] carbenicillin, 30 ng/mL kanamycin, 1 mM IPTG) supplemented with 1 mM of α-Phe or a β^3-Phe analog. Cells were grown overnight (18 h) at 37° C. while shaking (200 rpm). The cells were harvested by centrifugation (10 min at 4000×g) and resuspended in lysis buffer (50 mM NaH2PO4, 300 mM NaCl, 10 mM imidazole (pH 8.0)). Lysis was performed by sonication (Branson Sonifier 250) with 5 cycles of 20 s on, 20 s off. Lysed cells were then centrifuged for 20 min at 15000×g. The clarified cell lysate was incubated with Ni-NTA resin (Qiagen) for 1 h while gently rotating at 4° C. The Ni-NTA column was washed with lysis buffer prior to eluting proteins with elution buffer (50 mM NaH2PO4, 300 mM NaCl, 300 mM imidazole (pH 8.0)). Elutions were analyzed with SDS-PAGE to prepare material for in-gel trypsin digestions. Controls included side-by-side growths in (1) unsupplemented 19/20 minimal media, which contains only low levels of α-Phe present (negative control); (2). 19/20 minimal media supplemented with 1 mM α-Phe (positive control) and (3) and 19/20 minimal media supplemented with 1 mM β^3-Gly (negative control; β^3-aa that is not a β^3-Phe analog).

[7] = test system: BL21(DE3) cells expressing 040329 ribosomes along with WT ribosomes; assay: as above; assay type: cell-based, E. coli; settings: 040329 + WT ribosomes, media supplemented with 1 mM of the amino acid
From the text: as §1, §2

[8] = test system: BL21(DE3) cells expressing P7A7 ribosomes along with WT ribosomes; assay: as above; assay type: cell-based, E. coli; settings: media supplemented with 1 mM of the amino acid
From the text: as §1, §2

[9] = test system: DHFR position 128 translated in E. coli BL21 (DE3); assay: Spectral counting (LC-MS/MS of tryptic peptides) of β3-(p-Br)Phe and α-Phe incorporation into DHFR in vivo; assay type: cell-based; settings: cells expressing 040329 ribosomes
From the text: as §1
as §2, with “19/20 minimal media supplemented with 1 mM α-Phe (positive control) and (3) and 19/20 minimal media supplemented with 1 mM β^3-Gly (negative control; β^3-aa that is not a β^3-Phe analog).” left out

T1 sequence (P00960 whole entry): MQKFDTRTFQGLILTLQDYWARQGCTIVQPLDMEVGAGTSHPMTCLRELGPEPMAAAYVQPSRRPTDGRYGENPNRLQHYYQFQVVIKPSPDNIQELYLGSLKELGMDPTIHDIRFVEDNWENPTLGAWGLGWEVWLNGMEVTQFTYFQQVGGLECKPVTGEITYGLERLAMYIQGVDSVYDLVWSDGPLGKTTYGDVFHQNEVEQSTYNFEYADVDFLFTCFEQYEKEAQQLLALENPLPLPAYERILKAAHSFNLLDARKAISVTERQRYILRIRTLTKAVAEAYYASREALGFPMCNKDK
T1 sequence (P00961 whole entry, further chain): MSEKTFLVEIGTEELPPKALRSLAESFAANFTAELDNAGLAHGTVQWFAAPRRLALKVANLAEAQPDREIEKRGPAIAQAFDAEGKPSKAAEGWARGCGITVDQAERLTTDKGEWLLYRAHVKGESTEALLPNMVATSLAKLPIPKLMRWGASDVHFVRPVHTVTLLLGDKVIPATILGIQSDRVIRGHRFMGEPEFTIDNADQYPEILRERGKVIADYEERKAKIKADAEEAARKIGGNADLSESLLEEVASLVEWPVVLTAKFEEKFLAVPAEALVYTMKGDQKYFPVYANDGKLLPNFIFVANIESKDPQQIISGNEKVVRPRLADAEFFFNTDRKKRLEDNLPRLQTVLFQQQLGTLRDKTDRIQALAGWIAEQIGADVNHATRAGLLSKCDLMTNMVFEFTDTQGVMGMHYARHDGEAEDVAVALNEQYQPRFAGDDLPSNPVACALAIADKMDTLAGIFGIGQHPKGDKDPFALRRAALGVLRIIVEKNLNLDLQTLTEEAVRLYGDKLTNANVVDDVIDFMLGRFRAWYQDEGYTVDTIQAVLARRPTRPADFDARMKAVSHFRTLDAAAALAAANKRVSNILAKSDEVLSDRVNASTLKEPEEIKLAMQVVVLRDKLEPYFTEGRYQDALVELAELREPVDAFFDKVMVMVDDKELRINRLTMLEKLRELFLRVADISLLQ

NCC(=O)O [α-Gly, Glycine]
Km (E. coli GlyRS [1]): 13.4 ± 4.7 µM
Ratio (α/β) of KM (E. coli GlyRS [1]): 1.2 ± 1.00
Ratio (α/β) of kcat (E. coli GlyRS [1]): 1.9 ± 1.0
Ratio (α/β) of kcat/KM (E. coli GlyRS [1]): 1.5 ± 0.7
kcat (E. coli GlyRS [1]): 0.0967 ± 0.0083 s⁻¹
Km (E. coli GlyRS [2]): 9.8 ± 3.5 µM
Ratio (α-/β-) of KM (E. coli GlyRS [2]): 0.14 ± 0.11
Ratio (α-/β-) of RSA (E. coli GlyRS [2]): 1.14 ± 0.24
Ratio (α-/β-) of kcat/KM (E. coli GlyRS [2]): 7.97 ± 6.46
kcat (min^−1) or RSA (^32P-ATP formed min^−1 enzyme μM^−1) (E. coli GlyRS [2]): 166.8 ± 12.8 ^32P-ATP formed min^−1 enzyme μM^−1
krev (apparent rate of deacylation) (E. coli GlyRS [3]): 0.21 ± 0.08 min⁻¹
Ratio (α/β) of krev (E. coli GlyRS [3]; deacylation, GlyRS): 0.3 ± 0.1

CC[C@H]1OC(=O)[C@H](C)[C@@H](O[C@H]2C[C@@](C)(OC)[C@@H](O)[C@H](C)O2)[C@H](C)[C@@H](O[C@@H]2O[C@H](C)C[C@H](N(C)C)[C@H]2O)[C@](C)(O)C[C@@H](C)C(=O)[C@H](C)[C@@H](O)[C@]1(C)O [erythromycin]
growth inhibition [4]: full growth inhibition

COc1ccc(CC(N)CC(=O)NC2C(CO)OC(n3cnc4c(N(C)C)ncnc43)C2O)cc1 (stereo not drawn) [β^3-puromycin]
growth inhibition [5]: lack of growth inhibition

NCCC(=O)O [β-Gly, β^3-glycine]
amount of DHFR generated [6]: trace amounts
level of DHFR [7]: significant levels
level of DHFR [8]: lower levels
Km (E. coli GlyRS [1]): 11.1 ± 2.8 µM
kcat (E. coli GlyRS [1]): 0.0517 ± 0.0017 s⁻¹
Km (E. coli GlyRS [2]): 68.4 ± 47.3 µM
kcat (min^−1) or RSA (^32P-ATP formed min^−1 enzyme μM^−1) (E. coli GlyRS [2]): 146.4 ± 29.2 ^32P-ATP formed min^−1 enzyme μM^−1
krev (apparent rate of deacylation) (E. coli GlyRS [3]): 0.71 ± 0.09 min⁻¹
incorporation at position 128 of DHFR (LC-MS/MS) [9]: no evidence
